US20260191815A1, “THIOACRYLAMIDE DERIVATIVES FOR USE IN THE PREVENTION OR TREATMENT OF LIVER FIBROSIS” (CMR CUREDIAB METABOLIC RESEARCH GMBH, priority 2022, published 2026)
Entries after “also recorded” stand apart in the source; their conditions may differ.

Legend:
Assay type in all cases: cell-based, human
[1] = system: pro-collagen 1a1 in 3D PHH:NPC spheroid supernatants; assay: Pro-collagen 1a1 ELISA in supernatants of 3D PHH:NPC NASH spheroids; conditions: NASH medium
Experimental: (§1) Experiments were conducted using HepaPredict's (HepaPredict AB, Sweden) 3D primary human hepatocyte (PHH) spheroid NASH model (e.g. as published in Bell et al. Sci Rep. 2016 May 4; 6:25187. doi: 10.1038/srep25187).
(§2) Cryopreserved primary human hepatocytes were obtained from BioIVT (USA) and nonparenchymal cells (NPC) from LifeNetHealth (USA). After thawing, PHH-NPC cocultures were seeded in a multi-well 96-well Elplasia plate (Corning) in William's E medium containing 11 mM glucose, 10 μg/mL (control) or 10 mg/mL insulin (NASH), 100 nM dexamethasone, 5.5 mg/L transferrin, 6.7 μg/L selenite, 2 mM L-glutamine, 1 U/mL penicillin, 0.1 mg/mL streptomycin, and 10% fetal bovine serum (FBS). PHH-NPC cocultures were seeded in ratio of 6:1 PHH:NPC with a total of 40,000 PHH per well. When spheroids were formed, FBS was phased out and spheroids were maintained in either the same media to provide the negative control (“Ctrl”), or with addition of albumin-conjugated free fatty acid (FFA), comprised of 240 μM palmitic acid and 240 μM oleic acid (NASH medium) to provide the positive control (“NASH”). Compound exposure was conducted in NASH medium with medium exchanges every 48-72 hours.
After spheroid formation, cells were exposed to up to five different concentrations of the candidate molecules HK1 or HK3 (0.1 μM, 0.3 μM, 1 μM, 3 μM, and 10 μM) with or without FFA in the culture medium. All compound stocks and dilutions were prepared in DMSO, aliquoted and stored protected from light at −20° C. Fresh dosing solutions were prepared from these aliquots on each dosing day. All endpoints were evaluated after 14 days of exposure. […]
Supernatant from each well was collected and stored at […]. On the day of the measurement, samples were thawed and fibrosis was evaluated using the Human Pro-collagen 1 alpha 1 DuoSet ELISA (R&D Systems) where pro-collagen 1a1 levels were measured in culture supernatants. […]

[2] = system: IL-6 secretion in 3D PHH:NPC spheroids; assay: IL-6 secretion (Luminex) by 3D PHH:NPC NASH spheroids; conditions: for IL-6 levels compared to NASH: NASH medium
Experimental: as §1, §2
After spheroid formation, cells were exposed to up to five different concentrations of the candidate molecules HK1 or HK3 (0.1 μM, 0.3 μM, 1 μM, 3 μM, and 10 μM) with or without FFA in the culture medium. All compound stocks and dilutions were prepared in DMSO, aliquoted and stored protected from light at −20° C. Fresh dosing solutions were prepared from these aliquots on each dosing day. All endpoints were evaluated after 14 days of exposure.
For statistical comparisons, normalized values for a given condition were compared to either the corresponding vehicle (DMSO) controls or the respective FFA (NASH) controls at the same time point using heteroscedastic unpaired two-tailed t-tests.
Secreted cytokines (IL-6 and IL-8) were measured in culture supernatants using a customized Magnetic Luminex Performance Assay (Human Cytokine Panel A, R&D Systems). The multiplexed assay was performed following the manufacturer's instructions. Standard curves were generated by resuspending the human recombinant cytokines mixture at concentrations ranging from […] with 8 points at 1:3 series dilution for the customized selection of […], IL-6 and IL-8/CXCL8. […] The fluorescence intensity was measured using a Bio-Plex 200 system (Bio-Rad), the median fluorescence intensity of each analyte was analyzed with the Bio-Plex Manage software (version 6.2) using a 5-parameter regression algorithm. […]
To assess the effect of the two candidate compounds HK1 and HK3 on hepatic inflammation, we measured levels of the pro-inflammatory cytokines IL-6 and IL-8.

[3] = system: IL-8 secretion in 3D PHH:NPC spheroids; assay: IL-8 secretion (Luminex) by 3D PHH:NPC NASH spheroids; conditions: across 1-10 μM, NASH medium
Experimental: as §1
Cryopreserved primary human hepatocytes were obtained from BioIVT (USA) and nonparenchymal cells (NPC) from LifeNetHealth (USA). After thawing, PHH-NPC cocultures were seeded in a multi-well 96-well Elplasia plate (Corning) in William's E medium containing 11 mM glucose, 10 μg/mL (control) or 10 mg/mL insulin (NASH), 100 nM dexamethasone, 5.5 mg/L transferrin, 6.7 μg/L selenite, 2 mM L-glutamine, 1 U/mL penicillin, 0.1 mg/mL streptomycin, and 10% fetal bovine serum (FBS). […]
After spheroid formation, cells were exposed to up to five different concentrations of the candidate molecules HK1 or HK3 (0.1 μM, 0.3 μM, 1 μM, 3 μM, and 10 μM) with or without FFA in the culture medium. […] All endpoints were evaluated after 14 days of exposure. […]
Secreted cytokines (IL-6 and IL-8) were measured in culture supernatants using a customized Magnetic Luminex Performance Assay (Human Cytokine Panel A, R&D Systems). […] The fluorescence intensity was measured using a Bio-Plex 200 system (Bio-Rad), the median fluorescence intensity of each analyte was analyzed with the Bio-Plex Manage software (version 6.2) using a 5-parameter regression algorithm. […]

SMILES: Cc1cc(NC(=S)/C(C#N)=C(\O)C2CC2)ccc1[N+](=O)[O-] [HK3, 2-Cyano-3-cyclopropyl-3-hydroxy-N-(3-methyl-4-nitro-phenyl)-thioacrylamide]
- pro-collagen 1a1 levels compared to NASH ([1]; 1 μM): 82%
- pro-collagen 1a1 levels compared to NASH ([1]; 3 μM): 73%
- pro-collagen 1a1 levels compared to NASH ([1]; 10 μM): 64%
- IL-6 levels compared to NASH ([2]; 1 μM): 73%
- IL-6 levels compared to NASH ([2]; 3 μM): 55%
- IL-6 levels compared to NASH ([2]; 10 μM): 72%
- IL-6 secretion, effect in words ([2]; NASH spheroids, 1-10 μM): slight decrease; also recorded: stronger decrease
- IL-8 levels compared to NASH [3]: 80-91%
